According to patent publication US20160291027A1, “METHODS FOR […] ABILITY OF A Z[…] COMPOUND TO TREAT CANCER” (Eisai R&D Management Co., Ltd., priority 2007, published 2016):

Legend:
RPMI-7951 = experiment: CellTiter-Glo cell growth assay; format: cell-based; conditions: RPMI-7951, BRAF mutated melanoma, elevated pAKT; 10 μmol/L to 0.0003 μmol/L
Procedure: In order to determine whether Compound 106 resistance is associated with constitutive AKT phosphorylation as a result of activation of the PI3K signaling pathway, a panel of 10 BRAF mutated melanoma cell lines and a BRAF wild-type glioblastoma cancer cell line, SF-295, were tested using different concentrations of Compound 106 ranging from 10 μmol/L to 0.0003 μmol/L.
All assays were performed in a 96 well format. For these cell lines, protein lysates were collected in a separate experiment, which allowed for the evaluation of the constitutive level of AKT phosphorylation and correlation between the level of phosphorylated AKT (pAKT) and Compound 106 sensitivity. Cell growth was assessed using CellTiter-Glo® Luminescent Cell Viability Assay (Promega). Phosphorylated AKT protein was analyzed by Western blotting, with total AKT being used as a loading control.

[1] = system: LOX human melanoma xenografts; experiment: Immunohistochemistry of LOX xenografts after single dosing; format: in vivo, mice; conditions: single 40 mg/kg i.v.
Procedure: LOX human melanoma cells, which carry the V600E BRAF mutation, were originally obtained from the DCTD Tumor Repository (Frederick, Md.). The cells were grown in monolayer cultures in DCTD-recommended growth media at 37° C. in a 5% CO2 humidified incubator. On the day of subcutaneous (s.c.) injections of the cells, growth medium was removed, flasks were washed with PBS, and cells were collected with trypsinization. The cells were washed and collected by centrifugation, and then resuspended in ice-cold PBS at a concentration of 1×10^7 cells/mL. The cells (1×10^6 cells) were inoculated s.c. in female athymic NU/NU mice near the right axillary area using a 27-gauge needle with a volume of 0.1 mL, and allowed to grow. Compound 106 was administered intravenously (i.v.) on a single dosing at the dosage level of 40 mg/kg with a volume of injection 0.1 mL per 10 g body weight. Then, the mice were euthanized at different time points including 0, 1, 2, 4, 8, 12, 24, 48, 72 h after dosing. The tumor tissue was dissected and fixed with 10% formalin for immunohistochemistry.
For immunohistochemical detection of phospho-ERK 1/2, rabbit mAb 20011 was used at a final concentration of […] (Cell Signaling, Cat. No. 4376). This mAb detects endogenous levels of p44 and p42 MAP Kinase (ERK1 and ERK2) when dually phosphorylated at Thr202 and Tyr204 of ERK1 (Thr185 and […] of ERK2), and singly phosphorylated at Thr202. Conditions were essentially as described in IHC Procedure (2), with incubation overnight (18 hr) at 4° C. and EDTA retrieval buffer. Secondary reagent was goat anti-rabbit antibody, conjugated to alkaline phosphatase.
For immunohistochemical detection of phospho-RB, anti-phospho-Retinoblastoma (pSer780) antibody (Sigma, Cat. No. R6275) was used (Table 10). Conditions were as described in IHC Procedure (1), with incubation for one hour at room temperature and EDTA retrieval buffer. Secondary reagent was anti-rabbit antibody, conjugated to horseradish peroxidase.

## CCNc1cc(O)c2c(c1)/C=C/C[C@H](O)[C@H](O)C(=O)/C=C\[C@@H](C)[C@H](C)OC2=O [Compound 106]
RPMI-7951
  Sensitivity of cell line: resistant
[1]
  Time for phospho-ERK staining to recover to baseline levels: ≤ 24 h
[1]; 8 hour time-point
  Phospho-ERK staining (IHC): essentially no observable staining
[1]; between 24 and 48 hours, through 72 hours
  Ki67 staining (IHC): suppressed to below detection
[1]; between 48 and 72 hours
  phospho-pRB level (IHC): suppressed to below detection
